The subject of series [1] is prostacyclin receptor (CNS) in the thalamus ([^3 H] isocarbacyclin receptor). Kind of series: Displacement test relative to tritium-labelled isocarbacyclin, thalamus (CNS), autoradiography of frozen brain sections. It counts as binding, rat. The note with it: for Binding ratio to [^3 H] isocarbacyclin receptor: thalamus (CNS), 10 nM [^3 H]isocarbacyclin, 4° C., 2 h, pH 7.4. The method, then:
(§1) Blood ingredients were removed from the brain of a rat by systemic perfusion, and were frozen, thus preparing a frozen section having a thickness of 10 μm. This section was incubated with 10 nM [^3 H]isocarba cyclin and isocarbacyclin derivatives at various concentrations, at 4° C. for two hours in 50 mM Tris/HCl pH 7.4 and 20 mM MgCl2 solution. After incubation and washing, the solution was dried, thereby preparing an autoradiography film of the section. A displacement value for each derivative was determined by quantitative analysis of the autoradiography (n=at least 4).
1) The results in the thalamus (CNS) are shown in Tables 1 and 2 for the following compounds: [drawing 27]

The test system of series [2] is platelets. Kind of series: Platelet aggregation inhibiting activity (ADP-induced, platelet rich plasma). The note with it: for IC50: rat platelet rich plasma, 100 μM ADP, 5 μl, 37° C., 1 min preincubation. It counts as cell-based, rat. The method, then:
Blood was totally taken from the abdominal aorta of an anesthetized rat (body weight: 500 g). Then, 1/10 volume part of 3.8% sodium citrate was added to the sampled blood and the mixture was centrifugally separated at 1,000 rpm for ten minutes to achieve an upper layer of platelet rich plasma (PRP). The lower layer was then further centrifugally separated at 3,000 rpm for ten minutes to prepare platelet poor plasma (PPP). The number of platelets in PRP was measured, and PPP was diluted to adjust the number to […] to serve as a platelet solution. The platelet solution was placed in an amount of 90 μl into a cuvette, and the drug to be tested in an amount of […] was added for incubation at 37° C. for one minute. Then, an aggregation agent (100 μM ADP) in an amount of 5 μl was added to cause aggregation of platelets, and changes in […] were measured. Control of aggregation activity was conducted by using turbidity upon addition of physiological saline.

Series [3] has as its system platelets aggregation / vasodilation. The note with it: compared with natural prostacyclin; cited from earlier work.
For series [4], the target named is T1, prostacyclin receptor (PNS) in the medulla oblongata nucleus ([^3 H] isocarbacyclin receptor) (Rattus norvegicus, UniProt P43253).
T1 construct: Blood ingredients were removed from the brain of a rat by systemic perfusion; from tissue; host or cells: rat brain, frozen sections, medulla oblongata nucleus (nucleus solitarius) read by autoradiography
T1 sequence (P43253 whole entry, the tested form may be a part): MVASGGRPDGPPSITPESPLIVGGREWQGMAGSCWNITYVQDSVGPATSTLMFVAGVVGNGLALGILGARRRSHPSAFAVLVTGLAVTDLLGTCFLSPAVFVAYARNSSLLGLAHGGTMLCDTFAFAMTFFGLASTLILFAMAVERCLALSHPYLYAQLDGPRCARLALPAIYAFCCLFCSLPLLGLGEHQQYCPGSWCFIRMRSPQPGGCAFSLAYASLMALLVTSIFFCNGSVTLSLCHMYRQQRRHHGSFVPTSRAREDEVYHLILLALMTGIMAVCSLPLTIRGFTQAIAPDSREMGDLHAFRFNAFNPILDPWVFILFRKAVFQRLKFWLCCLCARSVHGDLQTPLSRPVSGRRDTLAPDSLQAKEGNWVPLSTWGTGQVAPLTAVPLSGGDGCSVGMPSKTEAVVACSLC
Briefly: Displacement test relative to tritium-labelled isocarbacyclin, medulla oblongata nucleus (PNS), autoradiography of frozen brain sections. The note with it: 10 nM [^3 H]isocarbacyclin, 4° C., 2 h, pH 7.4, read-out: Binding ratio to [^3 H] isocarbacyclin receptor; for activity at 0.3 µM: un-labelled compound 3 × 10^-7 M; for activity at 0.03 µM: un-labelled compound 3 × 10^-8 M; for activity at 0.003 µM: un-labelled compound 3 × 10^-9 M; for activity at 1 µM: un-labelled compound 10^-6 M; for activity at 0.01 µM: un-labelled compound 10^-8 M; for activity at 0.1 µM: un-labelled compound 10^-7 M. The method, then:
as §1

Series [5] has as its system nervous system. The note with it: cited from earlier work.
Series [6] relates to dopamine D1 receptors. The note with it: cited from earlier work.
Series [7] concerns prostacyclin binding sites in cerebral hemisphere. Particulars: autoradiography, frozen cryostat sections; cited from earlier work.
In series [8] the test system is binding site of iloprost in platelets. Particulars: cited from earlier work.
For series [9] the following is noted: neutral or oxidizing conditions; cited from earlier work.
Setting [10] is: un-labelled compound 3 × 10^-7 M, 0.3 µM.
[11] abbreviates: un-labelled compound 3 × 10^-8 M, 0.03 µM.
Where [12] appears, read: un-labelled compound 3 × 10^-9 M.
[13] abbreviates: un-labelled compound 10^-6 M, 1 µM.
[14] abbreviates: un-labelled compound 10^-7 M, 0.1 µM.

Consider `CCCCC[C@H](O)/C=C/[C@@H]1[C@H]2CC(CCCCC(=O)O)=C[C@H]2C[C@H]1O` [Isocarbacyclin, 9(O)-methano-Δ^6(9α) prostaglandin I1], for which the “Binding ratio to [^3 H] isocarbacyclin receptor” value (“Binding ratio” below) in series [1] (setting [10]) is on record as 34.7%; in series [1] (setting [11]), 76.4%; in [1] (setting [12]), 99.2%; in [1] (setting [13]), 19.3%; in [1] (setting [14]) it was 62.7%; in series [1] (un-labelled compound 10^-8 M) it was 94.5%. Also, half-maximal inhibition in [2] (IC50) required 2.5 nM. Besides, in series [3], the “platelets aggregation inhibiting functions and vasodilating antihypertensive effects” value is “strong platelets aggregation inhibiting functions and vasodilating antihypertensive effects and other biological activities well comparable with those of natural prostacyclin”. For the same compound, the activity at 0.3 µM in series [4] was determined as 22.5%. Further, in series [4], the activity at 0.03 µM came out at 57.3%. Moreover, the activity at 0.003 µM in series [4] is 94%. Besides, the activity at 1 µM in [4] is 8%. For the same compound, in series [4], the activity at 0.01 µM turned out to be 79%.
As to `Cc1cccc(C[C@@H](O)/C=C/[C@@H]2[C@H]3CC(CCCCC(=O)O)=C[C@H]3C[C@H]2O)c1` [Compound A, 15R-16-(3-methylphenyl)-17, 18, 19, 20-tetranolisocarbacycline], the “binding to the thalamic prostacyclin receptor (CNS)” value in series [1] (in words) was “firmly bound to the thalamic prostacyclin receptor (CNS)”. Further, in series [1] (in words, compared with isocarbacyclin), the “activity relative to the prostacyclin receptor (CNS) in the thalamus” value is “an activity stronger than that of isocarbacyclin”. For the same compound, the “Binding ratio” value was 25.4% in series [1] (setting [10]); 67.0% in series [1] (setting [11]); 97.4% in [1] (setting [12]); 15.7% in series [1] (setting [13]); 48.3% in [1] (setting [14]); 89.2% in series [1] (un-labelled compound 10^-8 M). In addition, the “platelet aggregation inhibiting activity” value in [2] (in words) is “almost no platelet aggregation inhibiting activity”. Also, in [2], the IC50 (in general, the point on the concentration scale where inhibition reaches its midpoint) is above 400 nM. Besides, the activity at 0.3 µM in [4] is 69.8%. In addition, the activity at 0.03 µM in series [4] amounted to 79.3%. The activity at 1 µM in [4] stood at 52.5%. For the same compound, the activity at 0.01 µM in [4] is 74.1%. For the same compound, the activity at 0.001 µM in series [4] (un-labelled compound 10^-9 M (so in the source)) was found to be 84.7%.
Turning to `CC#CCC(C)[C@H](O)/C=C/[C@@H]1[C@H]2C/C(=C/CCCC(=O)O)C[C@H]2C[C@H]1O` (some centres unmarked) [iloprost], the “effects on the nervous system” value in series [5] was “sedation, anticonvulsation, antihypoxemia (prolongation effects in hypoxemia) and synchronizing induction effects of brain waves antagonized by amphetamine”. Also, the “prevention of the binding of dopamine D1 receptors” value in series [6] is listed as “prevention of the binding of dopamine D1 receptors”.
Consider `Cc1cccc(CCC[C@@H](O)/C=C/[C@@H]2[C@H]3CC(CCCCC(=O)O)=C[C@H]3C[C@H]2O)c1` [Compound C], for which, in series [1] (setting [10]), the “Binding ratio” value is listed as 73.3%. Further, the “Binding ratio” value in [1] (setting [11]) is 93.8%. Also, in series [1] (setting [12]), the “Binding ratio” value was 98.7%. Further, the “Binding ratio” value in series [1] (setting [13]) worked out at 48.1%. For the same compound, the “Binding ratio” value in series [1] (setting [14]) is listed as 85.9%. For the same compound, the “Binding ratio” value in series [1] (un-labelled compound 10^-8 M) was found to be 96.1%. Besides, in [4], the activity at 0.3 µM stood at 71.8%, the activity at 0.03 µM worked out at 89.9%, the activity at 0.003 µM amounted to 95% and the activity at 1 µM is 53.5%. In series [4], the activity at 0.1 µM was determined as 81.3% and the activity at 0.01 µM came out at 92%.
Turning to `CC#CCC(C)[C@H](O)/C=C/[C@@H]1[C@H]2C/C(=C/CCCC(=O)O)C[C@H]2C[C@H]1O` (some centres unmarked) [[^3 H] iloprost], the “prostacyclin binding sites found” value in series [7] is “prostacyclin binding sites in corpus striatum, amygdala, hippocampus and part of the cerebral cortex”.
For `Cc1cccc(C[C@H](O)/C=C/[C@@H]2[C@H]3CC(CCCCC(=O)O)=C[C@H]3C[C@H]2O)c1` [Compound B], the “Binding ratio” value in [1] (setting [10]) amounted to 36.6%. The “Binding ratio” value in series [1] (setting [11]) is on record as 84.6%. Besides, the “Binding ratio” value in series [1] (setting [12]) is reported as 98.6%. The “Binding ratio” value in series [1] (setting [13]) amounted to 20.1%. The “Binding ratio” value in [1] (setting [14]) is listed as 58.0%. Besides, the “Binding ratio” value in series [1] (un-labelled compound 10^-8 M) stood at 93.9%. Besides, in series [2], the IC50 stood at 19 nM. Also, in [4], the activity at 0.3 µM stood at 39.5%, the activity at 0.03 µM was 80.5%, the activity at 0.003 µM was 96.6% and the activity at 1 µM was determined as 33.8%. For the same compound, in [4], the activity at 0.1 µM worked out at 54.8% and the activity at 0.01 µM was 88.3%.
Consider `CCCCC[C@H](O)/C=C/[C@H]1[C@H](O)CC(=O)[C@@H]1CCCCCCC(=O)O` [Prostaglandin E1, reference compound], for which the half-maximal inhibitory concentration (IC50) in series [2] amounted to 63 nM. Further, the “reaction with the binding site of iloprost” value in [8] was “the binding site of iloprost reacts also with PGE1”.
On to `CCCCC[C@H](O)/C=C/[C@@H]1[C@H]2C/C(=C/CCCC(=O)O)O[C@H]2C[C@H]1O` [Natural prostacyclin], for which, in series [9], the chemical stability entry was “easily inactivated under neutral or oxidizing conditions”.
For the compound `Cc1cccc(CCC[C@H](O)/C=C/[C@@H]2[C@H]3CC(CCCCC(=O)O)=C[C@H]3C[C@H]2O)c1` [Compound D], the “Binding ratio” value in [1] (setting [10]) was determined as 94.1%; in [1] (setting [11]), 98.4%; in series [1] (setting [12]) it was 101.1%; in [1] (setting [13]) it was 88.5%; in series [1] (setting [14]) it was 100.8%; in series [1] (un-labelled compound 10^-8 M), 99.8%. Further, the activity at 0.3 µM in series [4] is 45.8%. The activity at 0.03 µM in series [4] stood at 80.6%. For the same compound, the activity at 0.003 µM in series [4] turned out to be 96.9%. In addition, the activity at 1 µM in series [4] turned out to be 34.4%. The activity at 0.1 µM in [4] worked out at 55.6%. Moreover, in series [4], the activity at 0.01 µM worked out at 92.8%.

The record behind these values is patent US5700833A, “Isocarbacyclin derivatives” (Research Developement Corporation of Japan, priority 1995, dated 1997).
